The values that follow come from US20240109864A1, “SUBSTITUTED PYRAZOLYL PIPERIDINE CARBOXYLIC ACIDS” (BAYER AKTIENGESELLSCHAFT, priority 2020, published 2024).

As a reminder, the EC50 is the concentration at which the effect is half-maximal.

The target in this test is T1, recombinant guanylate cyclase reporter cell line (Rattus norvegicus, UniProt P20595).
T1 construct: expressed in transfected cells
T1 sequence (P20595 1-619): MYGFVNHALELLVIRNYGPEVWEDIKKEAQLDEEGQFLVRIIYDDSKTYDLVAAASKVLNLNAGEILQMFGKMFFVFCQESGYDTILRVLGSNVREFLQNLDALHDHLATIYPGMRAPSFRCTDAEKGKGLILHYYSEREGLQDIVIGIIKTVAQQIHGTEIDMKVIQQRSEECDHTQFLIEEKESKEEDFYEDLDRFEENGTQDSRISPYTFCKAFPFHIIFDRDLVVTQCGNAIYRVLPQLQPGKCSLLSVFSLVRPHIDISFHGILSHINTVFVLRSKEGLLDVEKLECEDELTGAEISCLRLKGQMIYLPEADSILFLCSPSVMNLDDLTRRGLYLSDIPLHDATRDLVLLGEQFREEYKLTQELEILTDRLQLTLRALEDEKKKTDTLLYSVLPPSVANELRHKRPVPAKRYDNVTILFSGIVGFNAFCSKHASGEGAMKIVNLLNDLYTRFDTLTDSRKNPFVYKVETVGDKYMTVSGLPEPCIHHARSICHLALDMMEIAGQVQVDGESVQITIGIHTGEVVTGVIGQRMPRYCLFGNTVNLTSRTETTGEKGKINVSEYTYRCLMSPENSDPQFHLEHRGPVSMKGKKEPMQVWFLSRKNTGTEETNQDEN
T1 sequence (P19686 1-690 partner): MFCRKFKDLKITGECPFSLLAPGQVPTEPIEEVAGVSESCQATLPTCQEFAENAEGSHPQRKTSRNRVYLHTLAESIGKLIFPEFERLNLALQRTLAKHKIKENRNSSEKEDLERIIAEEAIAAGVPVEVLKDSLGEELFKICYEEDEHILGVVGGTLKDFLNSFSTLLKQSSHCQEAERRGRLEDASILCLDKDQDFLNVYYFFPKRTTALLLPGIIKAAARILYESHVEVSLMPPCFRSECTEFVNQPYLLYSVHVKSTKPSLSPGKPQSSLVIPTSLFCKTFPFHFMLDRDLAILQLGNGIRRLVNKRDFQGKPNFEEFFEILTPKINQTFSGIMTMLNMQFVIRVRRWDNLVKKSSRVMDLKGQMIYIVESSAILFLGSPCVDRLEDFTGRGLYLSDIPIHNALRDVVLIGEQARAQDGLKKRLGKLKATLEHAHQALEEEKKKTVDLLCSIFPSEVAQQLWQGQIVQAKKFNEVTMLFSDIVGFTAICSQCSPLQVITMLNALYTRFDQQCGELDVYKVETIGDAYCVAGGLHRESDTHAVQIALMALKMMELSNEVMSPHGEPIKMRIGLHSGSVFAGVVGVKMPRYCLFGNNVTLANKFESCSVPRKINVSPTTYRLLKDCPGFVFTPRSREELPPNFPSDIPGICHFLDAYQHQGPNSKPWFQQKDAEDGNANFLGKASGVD
Description: Effect on a recombinant guanylate cyclase reporter cell line. The class given is cell-based. The following applies: in some cases mean values from individual determinations; for MEC: MEC = minimum effective concentration; for EC50: half maximal effective concentration. On the procedure:
The cellular activity of the compounds according to the invention was determined using a recombinant guanylate cyclase reporter cell line, as described in F. Wunder et al., Anal. Biochem. 339, 104-112 (2005).

Structures are written as SMILES. Structures can show the parent of a compound that is named as a salt.

On to `O=C(O)c1cnn(C2CCCN(c3cc(Cl)ccc3-c3ccc(N4CCN(C(=O)C5CC56CC6)CC4)cc3)C2)c1C(F)(F)F` (single isomer, unassigned) [Example 53, 1-[1-{4-chloro-4′-[4-(spiro[2.2]pentane-1-carbonyl)piperazin-1-yl][1,1′-biphenyl]-2-yl}piperidin-3-yl]-5-(trifluoromethyl)-1H-pyrazole-4-carboxylic acid], for which the MEC was found to be 10.0 nM and the EC50 turned out to be 22 nM.

For `COC(=O)N1CCN(c2ccc(-c3ccc(Cl)cc3N3CCCC(n4ncc(C(=O)O)c4C(F)(F)F)C3)cc2)CC1` (single isomer, unassigned) [Example 54, 1-[1-[5-Chloro-2-[4-(4-methoxycarbonylpiperazin-1-yl)phenyl]phenyl]-3-piperidyl]-5-(trifluoromethyl)pyrazole-4-carboxylic acid], the MEC came to 3.0 nM and the EC50 came out at 11.1 nM.

Take `CCOC(=O)N1CCN(c2ccc(-c3ccc(Cl)cc3N3CCCC(n4ncc(C(=O)O)c4C(F)(F)F)C3)cc2)CC1` (single isomer, unassigned) [Example 55, 1-[1-[5-Chloro-2-[4-(4-ethoxycarbonylpiperazin-1-yl)phenyl]phenyl]-3-piperidyl]-5-(trifluoromethyl)pyrazole-4-carboxylic acid]: the MEC came to 3.0 nM and the EC50 was found to be 10.4 nM.

With `CC(C)OC(=O)N1CCN(c2ccc(-c3ccc(Cl)cc3N3CCCC(n4ncc(C(=O)O)c4C(F)(F)F)C3)cc2)CC1` (single isomer, unassigned) [Example 56, 1-[1-[5-Chloro-2-[4-(4-isopropoxycarbonylpiperazin-1-yl)phenyl]phenyl]-3-piperidyl]-5-(trifluoromethyl)pyrazole-4-carboxylic acid], the MEC came to 3.0 nM and the EC50 worked out at 18 nM.

As for `O=C(O)c1cnn(C2CCCN(c3cc(Cl)ccc3-c3ccc(N4CCN(C(=O)OC5CC5)CC4)cc3)C2)c1C(F)(F)F` (single isomer, unassigned) [Example 57, 1-[1-[5-Chloro-2-[4-[4-(cyclopropoxycarbonyl)piperazin-1-yl]phenyl]phenyl]-3-piperidyl]-5-(trifluoromethyl)pyrazole-4-carboxylic acid], the MEC came out at 1.0 nM and the EC50 worked out at 6.3 nM.

Turning to `CCCOC(=O)N1CCN(c2ccc(-c3ccc(Cl)cc3N3CCCC(n4ncc(C(=O)O)c4C(F)(F)F)C3)cc2)CC1` (single isomer, unassigned) [Example 58, 1-[1-[5-Chloro-2-[4-(4-propoxycarbonylpiperazin-1-yl)phenyl]phenyl]-3-piperidyl]-5-(trifluoromethyl)pyrazole-4-carboxylic acid], the MEC is given as 10.0 nM and the EC50 worked out at 42.5 nM.

As to `CC(C)COC(=O)N1CCN(c2ccc(-c3ccc(Cl)cc3N3CCCC(n4ncc(C(=O)O)c4C(F)(F)F)C3)cc2)CC1` (single isomer, unassigned) [Example 59, 1-[1-[5-Chloro-2-[4-(4-isobutoxycarbonylpiperazin-1-yl)phenyl]phenyl]-3-piperidyl]-5-(trifluoromethyl)pyrazole-4-carboxylic acid], the MEC was 10.0 nM and the EC50 stood at 40.5 nM.

Turning to `O=C(O)c1cnn(C2CCCN(c3cc(Cl)ccc3-c3ccc(N4CCN(C(=O)OCC5CC5)CC4)cc3)C2)c1C(F)(F)F` (single isomer, unassigned) [Example 60, 1-[1-[5-Chloro-2-[4-[4-(cyclopropylmethoxycarbonyl)piperazin-1-yl]phenyl]phenyl]-3-piperidyl]-5-(trifluoromethyl)pyrazole-4-carboxylic acid], the MEC was 10.0 nM and the EC50 amounted to 47.5 nM.

As to `O=C(O)c1cnn(C2CCCN(c3cc(Cl)ccc3-c3ccc(N4CCN(C(=O)OCC5CCC5)CC4)cc3)C2)c1C(F)(F)F` (single isomer, unassigned) [Example 61, 1-[1-[5-Chloro-2-[4-[4-(cyclobutylmethoxycarbonyl)piperazin-1-yl]phenyl]phenyl]-3-piperidyl]-5-(trifluoromethyl)pyrazole-4-carboxylic acid], the MEC stood at 3.0 nM and the EC50 came to 21 nM.

For the compound `COCCOC(=O)N1CCN(c2ccc(-c3ccc(Cl)cc3N3CCCC(n4ncc(C(=O)O)c4C(F)(F)F)C3)cc2)CC1` (single isomer, unassigned) [Example 62, 1-[1-[5-Chloro-2-[4-[4-(2-methoxyethoxycarbonyl)piperazin-1-yl]phenyl]phenyl]-3-piperidyl]-5-(trifluoromethyl)pyrazole-4-carboxylic acid], the MEC was 10.0 nM and the EC50 is 57.5 nM.

`COCCCOC(=O)N1CCN(c2ccc(-c3ccc(Cl)cc3N3CCCC(n4ncc(C(=O)O)c4C(F)(F)F)C3)cc2)CC1` (single isomer, unassigned) [Example 63, 1-[1-[5-Chloro-2-[4-[4-(3-methoxypropoxycarbonyl)piperazin-1-yl]phenyl]phenyl]-3-piperidyl]-5-(trifluoromethyl)pyrazole-4-carboxylic acid]: the MEC was 10.0 nM and the EC50 stood at 27 nM.

For `O=C(O)c1cnn(C2CCCN(c3cc(Cl)ccc3-c3ccc(N4CCN(C(=O)OCCOC(F)(F)F)CC4)cc3)C2)c1C(F)(F)F` (single isomer, unassigned) [Example 64, 1-[1-[5-Chloro-2-[4-[4-[2-(trifluoromethoxy)ethoxycarbonyl]piperazin-1-yl]phenyl]phenyl]-3-piperidyl]-5-(trifluoromethyl)pyrazole-4-carboxylic acid], the MEC is 30.0 nM and the EC50 worked out at 84 nM.

In the case of `CNC(=O)N1CCN(c2ccc(-c3ccc(Cl)cc3N3CCCC(n4ncc(C(=O)O)c4C(F)(F)F)C3)cc2)CC1` (single isomer, unassigned) [Example 65, 1-[1-[5-Chloro-2-[4-[4-(methylcarbamoyl)piperazin-1-yl]phenyl]phenyl]-3-piperidyl]-5-(trifluoromethyl)pyrazole-4-carboxylic acid], the MEC turned out to be 10.0 nM and the EC50 came to 56.5 nM.

In the case of `CCNC(=O)N1CCN(c2ccc(-c3ccc(Cl)cc3N3CCCC(n4ncc(C(=O)O)c4C(F)(F)F)C3)cc2)CC1` (single isomer, unassigned) [Example 66, 1-[1-[5-Chloro-2-[4-[4-(ethylcarbamoyl)piperazin-1-yl]phenyl]phenyl]-3-piperidyl]-5-(trifluoromethyl)pyrazole-4-carboxylic acid], the MEC is 3.0 nM and the EC50 was 28.5 nM.

In the case of `CS(=O)(=O)N1CCN(c2ccc(-c3ccc(Cl)cc3N3CCCC(n4ncc(C(=O)O)c4C(F)(F)F)C3)cc2)CC1` (single isomer, unassigned) [Example 67, 1-[1-[5-Chloro-2-[4-(4-methylsulfonylpiperazin-1-yl)phenyl]phenyl]-3-piperidyl]-5-(trifluoromethyl)pyrazole-4-carboxylic acid hydrochloride], the MEC stood at 30.0 nM and the EC50 is 45 nM.

In the case of `CCN1CCN(c2ccc(-c3ccc(Cl)cc3N3CCCC(n4ncc(C(=O)O)c4C(F)(F)F)C3)c(F)c2)CC1` (single isomer, unassigned) [Example 68, 1-[1-[5-Chloro-2-[4-(4-ethylpiperazin-1-yl)-2-fluoro-phenyl]phenyl]-3-piperidyl]-5-(trifluoromethyl)pyrazole-4-carboxylic acid hydrochloride], the MEC is recorded as 3.0 nM and the EC50 was 36.5 nM.
